Among the data in patent US20250026769A1, “PAPD5 INHIBITORS AND METHODS OF USE THEREOF” (The Children's Medical Center Corporation, priority 2021, published 2025) are ΔTm values, retold here.

The term ΔTm denotes the change in melting temperature against a reference sample.

For one assay, the target named is T1, rPAPD5 (Homo sapiens, UniProt Q8NDF8).
T1 construct: made in house
T1 sequence (Q8NDF8 68-698 isoform Q8NDF8-5 limits assumed): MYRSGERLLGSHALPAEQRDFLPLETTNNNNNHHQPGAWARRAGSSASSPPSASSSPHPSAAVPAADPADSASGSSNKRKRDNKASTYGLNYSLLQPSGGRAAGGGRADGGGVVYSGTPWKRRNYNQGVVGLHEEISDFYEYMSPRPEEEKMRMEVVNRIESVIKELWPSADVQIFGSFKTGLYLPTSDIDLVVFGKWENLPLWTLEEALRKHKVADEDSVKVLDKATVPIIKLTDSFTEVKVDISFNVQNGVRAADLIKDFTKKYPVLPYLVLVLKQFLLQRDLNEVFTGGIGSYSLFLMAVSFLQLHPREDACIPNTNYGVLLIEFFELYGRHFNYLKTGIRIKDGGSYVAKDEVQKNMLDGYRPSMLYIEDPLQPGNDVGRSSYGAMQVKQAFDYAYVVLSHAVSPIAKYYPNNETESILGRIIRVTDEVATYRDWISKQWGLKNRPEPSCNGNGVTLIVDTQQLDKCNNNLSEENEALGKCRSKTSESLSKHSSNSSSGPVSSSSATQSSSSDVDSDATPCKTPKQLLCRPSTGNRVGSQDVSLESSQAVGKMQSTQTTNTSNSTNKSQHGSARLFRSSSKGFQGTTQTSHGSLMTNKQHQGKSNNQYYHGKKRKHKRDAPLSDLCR
Briefly: differential scanning fluorimetry (DSF) binding and stabilization of rPAPD5. The note with it: 10 μM test compound; shift vs DMSO control; read-out: ΔTm (Table 2, starred: the compound was tested at 10 μM). As for the experimental part: Binding and stabilization of rPAPD5 by test compounds was determined using differential scanning fluorimetry (DSF). DSF assays were performed to determine protein melting temperature using an indicator dye SYPRO orange (Thermo Fisher Scientific, S6651) diluted 1:5000 in […] of buffer containing […], […] (Jena Biosciences), 25 mM Tris-HCl, 5 mM MgCl2, 50 mM KCl. […] DMSO was used as a negative control. Each curve was an average of three measurements and Thermal Shift software (Thermo Fisher Scientific, 4466038) was used for analysis. […] The change in melting temperature (ΔTm) is in reference to the DMSO control. Referring to Table 2, “+” refers to ΔTm values below 1° C., “++” refers to ΔTm values from 1 to 5° C., and “+++” refers to ΔTm values above 5° C.
For orientation: Differential scanning fluorimetry follows unfolding on heating by fluorescence.
Turning to `O=C(O)c1ccccc1Nc1c(S(=O)(=O)N2CCN(C(=O)OCc3ccccc3)CC2)cnc2ccc(Cl)cc12` [Compound 123A-CBZ], the ΔTm at 10 µM is greater than 5 °C.

The same assay, now with this note: 100 μM test compound; shift vs DMSO control; read-out: ΔTm at 100 μM.
`O=C(O)c1c(Nc2c(S(=O)(=O)N3CCOCC3)cnc3ccc(Cl)cc23)cccc1N1CCC1` [Compound 87A-Cl]: the ΔTm at 100 µM is 1 to 5 °C.
Still for that read-out and setting: then `O=C(O)c1c(Nc2c(S(=O)(=O)N3CCOCC3)cnc3ccc(Cl)cc23)cccc1-c1ccn[nH]1` [Compound 91A-Cl], with 1 to 5 °C.
On to `O=C(O)c1ccccc1Nc1c(S(=O)(=O)N2CCNCC2)cnc2ccc(Cl)cc12` [Compound 123A], for which the ΔTm at 100 µM was greater than 5 °C.
As for `COC(=O)c1ccccc1Nc1c(S(=O)(=O)N2CCOCC2)cnc2ccc(Cl)cc12` [Compound 124A], the ΔTm at 100 µM was 1 to 5 °C.
Still for that read-out and setting: then `O=C(O)c1c(F)cccc1Nc1c(S(=O)(=O)N2CCOCC2)cnc2ccc(Cl)cc12` [Compound 125A], with 1 to 5 °C.
As for `O=C(O)c1c(Nc2c(S(=O)(=O)N3CCOCC3)cnc3ccc(Cl)cc23)cccc1C(O)(O)C(F)(F)F` [Compound 127A-1], the ΔTm at 100 µM was greater than 5 °C.
Same read-out and setting: then `O=C(O)c1c(Br)cccc1Nc1c(S(=O)(=O)N2CCOCC2)cnc2ccc(Cl)cc12` [Compound 128A-BR], with less than 1 °C; and `O=C(O)c1ccccc1Nc1c(S(=O)(=O)N2CCOCC2)cnc2ccc(OC(F)(F)F)cc12` [Compound 131A], with greater than 5 °C.
Same read-out and setting: then `O=C(O)c1ccccc1Nc1c(S(=O)(=O)N2CCC(F)(F)CC2)cnc2ccc(OC(F)(F)F)cc12` [Compound 132A], with greater than 5 °C; and `O=C(O)c1c(O)cccc1Nc1c(S(=O)(=O)N2CCC(F)(F)CC2)cnc2ccc(OC(F)(F)F)cc12` [Compound 133A], with greater than 5 °C; and `O=C(O)c1ccccc1Nc1c(-c2cnco2)cnc2ccc(Cl)cc12` [Compound 134A], with greater than 5 °C.
On the same count and under the same terms, then `O=C(O)c1ccccc1Nc1c(S(=O)(=O)N2CC(CO)(CCl)C2)cnc2ccc(Cl)cc12` [Compound 135A-BP], with greater than 5 °C; and `O=C(O)c1ccccc1Nc1c(S(=O)(=O)N2CC3(COC3)C2)cnc2ccc(Cl)cc12` [Compound 135A], with greater than 5 °C.
As to `Cc1ccc(-c2ccc3ncc(S(=O)(=O)N4CCOCC4)c(Nc4ccccc4C(=O)O)c3c2)s1` [Compound 136A], the ΔTm at 100 µM fell in the range of 1 to 5 °C.
Turning to `O=C(O)c1ccccc1Nc1c(S(=O)(=O)N2CCOCC2)cnc2ccc(-c3cc[nH]n3)cc12` [Compound 137A], the ΔTm at 100 µM lay in the range of 1 to 5 °C.
The same measure, in the same setting: then `CC(=O)c1ccc(-c2ccc3ncc(S(=O)(=O)N4CCOCC4)c(Nc4ccccc4C(=O)O)c3c2)s1` [Compound 138A], with greater than 5 °C; and `N#Cc1csc(-c2ccc3ncc(S(=O)(=O)N4CCOCC4)c(Nc4ccccc4C(=O)O)c3c2)c1` [Compound 139A], with 1 to 5 °C.
The same measure, in the same setting: then `O=C(O)c1ccccc1Nc1c(S(=O)(=O)N2CCOCC2)cnc2ccc(-c3sccc3Cl)cc12` [Compound 140A], with 1 to 5 °C.
Take `CC(C)n1nc(C(F)(F)F)cc1-c1ccc2ncc(S(=O)(=O)N3CCOCC3)c(Nc3ccccc3C(=O)O)c2c1` [Compound 141A]: the ΔTm at 100 µM was less than 1 °C.
Take `CN(C)c1ncc(-c2ccc3ncc(S(=O)(=O)N4CCOCC4)c(Nc4ccccc4C(=O)O)c3c2)cn1` [Compound 142A]: the ΔTm at 100 µM is 1 to 5 °C.
Same read-out and setting: then `N=c1cc(C(F)(F)F)c(-c2ccc3ncc(S(=O)(=O)N4CCOCC4)c(Nc4ccccc4C(=O)O)c3c2)c[nH]1` [Compound 143A], with 1 to 5 °C; and `O=C(O)c1ccccc1Nc1c(S(=O)(=O)N2CCOCC2)cnc2ccc(-c3cn(S(=O)(=O)c4ccccc4)c4ncccc34)cc12` [Compound 144A], with greater than 5 °C; and `COCCn1cc(-c2ccc3ncc(S(=O)(=O)N4CCOCC4)c(Nc4ccccc4C(=O)O)c3c2)cn1` [Compound 145A], with greater than 5 °C.
With `O=C(O)c1ccccc1Nc1c(S(=O)(=O)N2CCOCC2)cnc2ccc(-c3cc4cc(Cl)ccc4s3)cc12` [Compound 146A-C1], the ΔTm at 100 µM was less than 0 °C.
`O=C(O)c1ccccc1Nc1c(S(=O)(=O)N2CCOCC2)cnc2ccc(-c3c[nH]c4ncc(C(F)(F)F)cc34)cc12` [Compound 147A]: the ΔTm at 100 µM was greater than 5 °C.
On the same count and under the same terms, then `O=C(O)c1ccccc1Nc1c(S(=O)(=O)N2CCOCC2)cnc2ccc(-c3cnn(C4CCOC4)c3)cc12` (centres unmarked) [Compound 148A-R], with 1 to 5 °C; and `O=C(O)c1ccccc1Nc1c(S(=O)(=O)N2CCOCC2)cnc2ccc(-c3cnn4cccnc34)cc12` [Compound 149A], with 1 to 5 °C.
On to `Cn1cc(-c2ccc3ncc(S(=O)(=O)N4CCOCC4)c(Nc4ccccc4C(=O)O)c3c2)ccc1=O` [Compound 150A], for which the ΔTm at 100 µM is greater than 5 °C.
Same read-out and setting: then `C/N=c1/ccc(-c2ccc3ncc(S(=O)(=O)N4CCOCC4)c(Nc4ccccc4C(=O)O)c3c2)c[nH]1` [Compound 151A], with 1 to 5 °C; and `CN(C)c1cncc(-c2ccc3ncc(S(=O)(=O)N4CCOCC4)c(Nc4ccccc4C(=O)O)c3c2)c1` [Compound 152A, 2-[[6-[5-(dimethylamino)-3-pyridyl]-3-morpholinosulfonyl-4-quinolyl]amino]benzoic acid], with 1 to 5 °C.
Still for that read-out and setting: then `O=C(O)c1ccccc1Nc1c(S(=O)(=O)N2CCOCC2)cnc2ccc(-c3cncc(C4CC4)c3)cc12` [Compound 153A, 2-[[6-(5-cyclopropyl-3-pyridyl)-3-morpholinosulfonyl-4-quinolyl]amino]benzoic acid], with 1 to 5 °C.
On the same count and under the same terms, then `O=C(O)c1ccccc1Nc1c(S(=O)(=O)N2CCOCC2)cnc2ccc(-c3cncnc3)cc12` [Compound 154A, 2-[(3-morpholinosulfonyl-6-pyrimidin-5-yl-4-quinolyl)amino]benzoic acid], with greater than 5 °C; and `O=C(O)c1ccccc1Nc1c(S(=O)(=O)N2CCOCC2)cnc2ccc(-c3cnc4[nH]ncc4c3)cc12` [Compound 155A, 2-[[3-morpholinosulfonyl-6-(1H-pyrazolo[3,4-b]pyridin-5-yl)-4-quinolyl]amino]benzoic acid], with 1 to 5 °C; and `Cc1c[nH]c2ncc(-c3ccc4ncc(S(=O)(=O)N5CCOCC5)c(Nc5ccccc5C(=O)O)c4c3)cc12` [Compound 156A, 2-[[6-(3-methyl-TH-pyrrolo[2,3-b]pyridin-5-yl)-3-morpholinosulfonyl-4-quinolyl]amino]benzoic acid], with greater than 5 °C.
On to `O=C(O)c1ccccc1Nc1c(S(=O)(=O)N2CCOCC2)cnc2ccc(-c3ccc(N4CCCC4)nc3)cc12` [Compound 157A, 2-[[3-morpholinosulfonyl-6-(6-pyrrolidin-1-yl-3-pyridyl)-4-quinolyl]amino]benzoic acid], for which the ΔTm at 100 µM was less than 1 °C.
Take `O=C(O)c1ccccc1Nc1c(S(=O)(=O)N2CCOCC2)cnc2ccc(-c3ccnc4[nH]ccc34)cc12` [Compound 159A, 2-[[3-morpholinosulfonyl-6-(1H-pyrrolo[2,3-b]pyridin-4-yl)-4-quinolyl]amino]benzoic acid]: the ΔTm at 100 µM was greater than 5 °C.
On to `O=C(O)c1ccccc1Nc1c(S(=O)(=O)N2CCOCC2)cnc2ccc(-c3cncc4[nH]ccc34)cc12` [Compound 160A, 2-[[3-morpholinosulfonyl-6-(1H-pyrrolo[2,3-c]pyridin-4-yl)-4-quinolyl]amino]benzoic acid], for which the ΔTm at 100 µM was greater than 5 °C.
